Laboratory results from US9182402B2, “Hepsin inhibitors” (Fred Hutchinson Cancer Research Center, priority 2008, dated 2015).
Read-outs that look alike come from different tables or passages of the source.

Tests used:
recombinant human hepsin = recombinant human hepsin (Homo sapiens, UniProt P05981); assay: Hepsin activity assay (chromogenic substrate pyroGlu-Pro-Arg-pNA); format: biochemical
Method: D. Hepsin, Trypsin and Thrombin Activity Assays.
Purified recombinant hepsin was preincubated with indicated compounds for 30 minutes at room temperature.

thrombin = thrombin (Bos taurus (Bovine), UniProt P00735); assay: Thrombin activity assay (chromogenic substrate); format: biochemical; settings: for IC50: 30 minutes preincubation at room temperature, substrate at Km
Method: (§1) Titration of the chromogenic substrate pryoGlu-Pro-Arg-pNA was performed for each enzyme and the resulting substrate-velocity data fit with nonlinear regression using GraphPad Prism 4 software (GraphPad, La Jolla, Calif.) to calculate Vmax and Km. […] The reactions were then followed using a kinetic microplate reader and the linear rates of increase in absorbance at 405 nm expressed as percent activity (100%×vi/vo). At least three independent experiments were performed for each enzyme. The IC50 was calculated by fitting the data to a four-parameter non-linear regression using GraphPad Prism 4.

HEK 293FT cells = assay: Toxicity to HEK 293FT cells in the pericellular protease assay system (CellTiter-Glo); format: cell-based; settings: 50 μM, 24-hour treatment
Method: The chromogenic serine protease substrate pyroglutamyl-L-prolyl-L-argininne-p-nitroaniline hydrochloride (pyrGlu-Pro-Arg-pNA) was then added to the media. […] (FIG. 5B) Toxicity of the candidate hepsin inhibitor compounds over the course of the pericellular protease assay was evaluated by 24-hour treatment of cells with 20 μM (white bars) or 50 μM (black bars) compounds, relative to vehicle control. […] Puromycin at 5 μg/mL was used as a positive control.
G. Pericellular Serine Proteolytic Activity Assay. […] After 3.5 hrs, transfection media was replaced with fresh media containing 20 μM or 50 μM of test compounds or solvent control (0.5% DMSO in media) and cells incubated overnight. […] Percent inhibition was calculated as residual activity relative to solvent control. […]
To determine the potential cytotoxicity of the previously identified hepsin inhibitors in this model system, HEK 293FT cells were incubated under identical conditions with 20 and 50 μM of the compounds and cytotoxicity was determined using the ATP-luciferase coupled assay as described above (FIG. 5B). […] The remaining compounds at 20 and 50 μM final concentration were incubated overnight with hepsin expressing cells and pericellular proteolytic activity was determined as described above (FIG. 6).

trypsin = trypsin (Sus scrofa (Pig), UniProt P00761); assay: Trypsin activity assay (chromogenic substrate); settings: read-out: IC50 trypsin; 30 minutes preincubation at room temperature, substrate at Km
Method: as §1

LNCaP cells = assay: Cell cytotoxicity assay (CellTiter-Glo, ATP-luciferase); settings: 20 μM, 72 hours, compounds replenished daily
[1] = system: MP-1 mouse prostate epithelial cell line; assay: as above; settings: MP-1, 20 μM, 72 hours, compounds replenished daily
HepG2 cells = assay: as above; settings: HepG2, 20 μM, 72 hours, compounds replenished daily
[2] = biological target: full-length wild-type murine hepsin expressed in HEK 293FT cells (Mus musculus (Mouse), UniProt O35453); assay: Hepsin-dependent pericellular serine proteolytic activity assay; format: cell-based; settings: for attenuation of hepsin-dependent pericellular proteolytic activity: 50 μM, activity/expression level relative to vehicle; for attenuation of hepsin-dependent pericellular proteolytic activity / pericellular proteolytic activity (in words): overnight incubation; for pericellular proteolytic activity (in words): 20 and 50 μM
Method: Loading was verified via immunoblot against β-actin.
G. Pericellular Serine Proteolytic Activity Assay. […] After 3.5 hrs, transfection media was replaced with fresh media containing 20 μM or 50 μM of test compounds or solvent control (0.5% DMSO in media) and cells incubated overnight. Attached cell monolayers were then washed twice with PBS and once with assay buffer (5% CO2 equilibrated phenol-red free DMEM with 1% BSA) to remove residual serum proteases/inhibitors. Cells were then incubated in assay buffer containing 20 or 50 μM compounds for 30 minutes at 37° C. […] Percent inhibition was calculated as residual activity relative to solvent control. Matched samples were used in parallel to determine toxicity of the test compounds to HEK 293FT cells in this system using the CellTiter-Glo™ assay.
D. Inhibition of Hepsin-Dependent Pericellular Proteolytic Activity. To determine whether the identified compounds were able to inhibit cell-based hepsin activity, an assay was devised to measure hepsin-dependent pericellular serine proteolytic activity (FIG. 5A) (Raynaud et al., 1992 J Cell Physiol 151:378; Bauvois et al., 1990 Eur. J. Immunol. 20:459; Bauvois et al., 1992 Eur. J. Immunol. 22:923; Sameni et al., 2000 Neoplasia 2:496; McGowen et al., 2000 Canc. Res. 60:4771). […] Attached cell monolayers were incubated in assay buffer with peptide substrate and the reactions were allowed to proceed at 37° C. […] Activity levels were adjusted by altering hepsin expression levels to within the linear range of detection. A positive linear rate of activity was observed only for wild-type hepsin-expressing cells and was abolished in the presence of the broad spectrum serine protease inhibitor PEFAbloc.

hepsin = hepsin (Mus musculus (Mouse), UniProt O35453); assay: Immunoblot of hepsin expression levels in compound treated HEK 293FT cells; settings: 20 and 50 μM, 24 hours
Method: The membrane was blocked overnight in TBST buffer containing: 5% non-fat milk, 2% normal goat serum in 50 mM Tris-HCl, pH 8.0, 100 mM NaCl, 0.1% Tween-20. The membrane was then incubated in 3% BSA in TBST with polyclonal anti-hepsin antibody (1:1000) for two hours at room temperature, washed 3×5 minutes with TBST and incubated for one hour in 0.1% BSA in TBST containing goat-anti-rabbit-HRP secondary antibody (1:2000), washed 3×5 minutes in TBST and developed with ECL (Pierce Chemicals, Rockford, Ill.). […] Expression levels were quantified by densitometry using ImageQuantTL™ (GE Healthcare Life Sciences, Piscataway, N.J.).
As treatment with chemical compounds may alter hepsin expression level (and thereby impact pericellular proteolytic activity), hepsin levels in drug-treated cells were determined via immunoblotting (FIG. 6B).

[3] = 30 minutes preincubation at room temperature, substrate at Km

Sequence of recombinant human hepsin (P05981 1-162 limits assumed): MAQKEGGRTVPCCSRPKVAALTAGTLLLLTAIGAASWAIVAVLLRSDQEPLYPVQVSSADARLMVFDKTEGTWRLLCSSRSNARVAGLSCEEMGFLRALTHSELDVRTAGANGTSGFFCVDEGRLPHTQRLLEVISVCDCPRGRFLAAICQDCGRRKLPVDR
Sequence of recombinant human hepsin (P05981 163-417 limits assumed): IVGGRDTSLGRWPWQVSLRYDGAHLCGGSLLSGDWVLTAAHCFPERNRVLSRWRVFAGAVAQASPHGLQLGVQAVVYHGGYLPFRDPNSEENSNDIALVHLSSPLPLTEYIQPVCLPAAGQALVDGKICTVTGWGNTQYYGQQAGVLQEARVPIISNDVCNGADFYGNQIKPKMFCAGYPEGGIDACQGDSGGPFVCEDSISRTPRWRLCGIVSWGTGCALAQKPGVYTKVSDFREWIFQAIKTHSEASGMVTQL
Sequence of full-length wild-type murine hepsin expressed in HEK 293FT cells (O35453 other isoform, or with tags, fused parts or gaps): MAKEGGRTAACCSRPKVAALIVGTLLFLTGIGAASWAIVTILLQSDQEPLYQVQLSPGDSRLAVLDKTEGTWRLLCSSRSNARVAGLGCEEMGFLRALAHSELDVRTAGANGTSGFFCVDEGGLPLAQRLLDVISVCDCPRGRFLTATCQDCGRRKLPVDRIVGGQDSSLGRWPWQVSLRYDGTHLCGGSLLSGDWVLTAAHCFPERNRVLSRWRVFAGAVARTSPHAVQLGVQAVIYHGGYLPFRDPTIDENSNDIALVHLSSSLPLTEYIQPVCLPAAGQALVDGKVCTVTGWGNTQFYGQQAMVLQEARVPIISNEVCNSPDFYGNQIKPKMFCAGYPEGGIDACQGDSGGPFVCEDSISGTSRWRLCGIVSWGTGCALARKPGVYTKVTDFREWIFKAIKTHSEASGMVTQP
Sequence of trypsin (P00761 9-231): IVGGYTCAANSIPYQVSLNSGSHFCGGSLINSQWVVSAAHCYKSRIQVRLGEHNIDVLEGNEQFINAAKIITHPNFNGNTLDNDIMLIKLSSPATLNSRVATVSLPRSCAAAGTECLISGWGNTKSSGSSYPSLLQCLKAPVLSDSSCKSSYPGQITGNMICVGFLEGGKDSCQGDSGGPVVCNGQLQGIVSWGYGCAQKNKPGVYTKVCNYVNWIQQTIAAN

O=C(Nc1ccc(-c2nc3ccccc3o2)c(O)c1)c1ccc(-c2cccc([N+](=O)[O-])c2)o1 [Compound 12, N-[4-(1,3-benzoxazol-2-yl)-3-hydroxyphenyl]-5-(3-nitrophenyl)-2-furamide]
IC50 (recombinant human hepsin; [3]): 0.33 ± 0.07 µM | IC50 (thrombin): > 20 µM | cytotoxicity to HEK 293FT cells (HEK 293FT cells): substantial toxicity | IC50 (trypsin): 3.5 ± 0.67 µM | cellular toxicity (cell viability) (LNCaP cells): substantially toxic | cellular toxicity (cell viability) [1]: substantially toxic | cellular toxicity (cell viability) (HepG2 cells): without affecting

Oc1nc2cc(Cl)c(Cl)cc2nc1O [Compound 16, 2,3-dihydroxy-6,7-dichloroquinoxaline]
IC50 (recombinant human hepsin; [3]): 0.75 ± 0.09 µM | IC50 (thrombin): > 20 µM | IC50 (trypsin): 2.42 ± 0.29 µM | cellular toxicity (cell viability) (LNCaP cells): limited or no cytotoxicity | cellular toxicity (cell viability) [1]: limited or no cytotoxicity | cellular toxicity (cell viability) (HepG2 cells): limited or no cytotoxicity

Cc1csc(-c2cc3ccc(OCc4c(F)c(F)c(F)c(F)c4F)cc3oc2=O)n1 [Compound 9, 3-(4-methyl-1,3-thiazol-2-yl)-7-[(pentafluorobenzyl)oxy]-2H-chromen-2-one]
IC50 (recombinant human hepsin; [3]): 0.98 ± 0.12 µM | IC50 (thrombin): > 20 µM | IC50 (trypsin): 20.9 ± 7.5 µM | cellular toxicity (cell viability) (LNCaP cells): limited or no cytotoxicity | cellular toxicity (cell viability) [1]: limited or no cytotoxicity | cellular toxicity (cell viability) (HepG2 cells): limited or no cytotoxicity

Cc1ccc(OCc2nnc(NC(=O)Nc3cccc(Cl)c3)s2)cc1C [Compound 2, N-(3-chlorophenyl)-N′-{5-[(3,4-dimethylphenoxy)methyl]-1,3,4-thiadiazol-2-yl}urea]
IC50 (recombinant human hepsin; [3]): 0.76 ± 0.26 µM | IC50 (thrombin): > 20 µM | IC50 (trypsin): > 20 µM | cellular toxicity (cell viability) (LNCaP cells): substantial toxicity | cellular toxicity (cell viability) [1]: without affecting | cellular toxicity (cell viability) (HepG2 cells): without affecting

O=[N+]([O-])c1ccc(C2Nc3c(cccc3C(F)(F)F)C3C=CCC32)cc1 (centres unmarked) [Compound 5, 4-(4-nitrophenyl)-6-(trifluoromethyl)-3a,4,5,9b-tetrahydro-3H-cyclopenta[c]quinoline]
IC50 (recombinant human hepsin; [3]): 0.57 ± 0.19 µM | IC50 (thrombin): > 20 µM | attenuation of hepsin-dependent pericellular proteolytic activity [2]: approximately 60% | pericellular proteolytic activity (in words) [2]: attenuated pericellular proteolytic activity in a dose dependent manner | IC50 (trypsin): 31.2 ± 2 µM | cellular toxicity (cell viability) (LNCaP cells): limited or no cytotoxicity | cellular toxicity (cell viability) [1]: limited or no cytotoxicity | cellular toxicity (cell viability) (HepG2 cells): limited or no cytotoxicity | hepsin expression levels (hepsin): without substantially affecting hepsin expression levels

O=[N+]([O-])c1cccc(C2Nc3ccc(Cl)cc3C3C=CCC32)c1 (centres unmarked) [Compound 6, 8-chloro-4-(3-nitrophenyl)-3a,4,5,9b-tetrahydro-3H-cyclopenta[c]quinoline]
IC50 (recombinant human hepsin; [3]): 0.98 ± 0.2 µM | IC50 (thrombin): > 20 µM | IC50 (trypsin): 10.2 ± 1.5 µM | cellular toxicity (cell viability) (LNCaP cells): limited or no cytotoxicity | cellular toxicity (cell viability) [1]: limited or no cytotoxicity | cellular toxicity (cell viability) (HepG2 cells): limited or no cytotoxicity

O=C(Nc1ccc(Cl)c(Cl)c1)Nc1nnc(-c2ccc(Br)cc2)s1 [Compound 8, N-[5-(4-bromophenyl)-1,3,4-thiadiazol-2-yl]-N′-(3,4-dichlorophenyl)urea]
IC50 (recombinant human hepsin; [3]): 0.72 ± 0.2 µM | IC50 (thrombin): > 20 µM | IC50 (trypsin): 1.71 ± 0.21 µM | cellular toxicity (cell viability) (LNCaP cells): limited or no cytotoxicity | cellular toxicity (cell viability) [1]: limited or no cytotoxicity | cellular toxicity (cell viability) (HepG2 cells): limited or no cytotoxicity

CC1(C)CC(=O)c2c(oc3c(Br)cc(NS(=O)(=O)c4ccccc4)cc23)C1 [Compound 10, N-(4-bromo-7,7-dimethyl-9-oxo-6,7,8,9-tetrahydrodibenzo[b,d]furan-2-yl)benzenesulfonamide]
IC50 (recombinant human hepsin; [3]): 0.93 ± 0.13 µM | IC50 (thrombin): > 20 µM | IC50 (trypsin): 7.72 ± 1.1 µM | cellular toxicity (cell viability) (LNCaP cells): limited or no cytotoxicity | cellular toxicity (cell viability) [1]: limited or no cytotoxicity | cellular toxicity (cell viability) (HepG2 cells): limited or no cytotoxicity

Cc1cccc(C2Nc3cccc4cccc(c34)N2)c1 [Compound 4, 2-(3-methylphenyl)-2,3-dihydro-1H-perimidine]
IC50 (recombinant human hepsin; [3]): 0.35 ± 0.12 µM | IC50 (thrombin): > 20 µM | attenuation of hepsin-dependent pericellular proteolytic activity [2]: approximately 60% | pericellular proteolytic activity (in words) [2]: attenuated pericellular proteolytic activity in a dose dependent manner | IC50 (trypsin): 19.6 ± 2.7 µM | cellular toxicity (cell viability) (LNCaP cells): limited or no cytotoxicity | cellular toxicity (cell viability) [1]: limited or no cytotoxicity | cellular toxicity (cell viability) (HepG2 cells): limited or no cytotoxicity | hepsin expression levels (hepsin): without substantially affecting hepsin expression levels

COc1cccc(OCCOc2cccc(/C=c3\sc4nc5ccccc5n4c3=O)c2)c1 [Compound 11, 2-{3-[2-(3-methoxyphenoxy)ethoxy]benzylidene}[1,3]thiazolo[3,2-a]benzimidazol-3(2H)-one]
IC50 (recombinant human hepsin): 1.31 ± 0.44 µM | IC50 (trypsin): 2 ± 0.33 µM | cellular toxicity (cell viability) (LNCaP cells): limited or no cytotoxicity | cellular toxicity (cell viability) [1]: limited or no cytotoxicity | cellular toxicity (cell viability) (HepG2 cells): limited or no cytotoxicity

O=C1c2c(O)cccc2Cc2cccc(O)c21 [Compound 15, 1,8-dihydroxyanthracen-9(10H)-one, reference compound]
IC50 (recombinant human hepsin; [3]): 0.23 ± 0.05 µM | IC50 (thrombin): > 20 µM | cytotoxicity to HEK 293FT cells (HEK 293FT cells): substantial toxicity | IC50 (trypsin): 1.26 ± 0.3 µM | cellular toxicity (cell viability) (LNCaP cells): toxic | cellular toxicity (cell viability) [1]: toxic | cellular toxicity (cell viability) (HepG2 cells): toxic

O=c1oc(-c2cccc(F)c2)nc2ccc(Cc3ccc4nc(-c5cccc(F)c5)oc(=O)c4c3)cc12 [Compound 7, 6,6′-methylenebis[2-(3-fluorophenyl)-4H-3,1-benzooxazin-4-one]]
IC50 (recombinant human hepsin; [3]): 2.31 ± 0.53 µM | IC50 (thrombin): > 20 µM | IC50 (trypsin): 13.1 ± 3 µM | cellular toxicity (cell viability) (LNCaP cells): limited or no cytotoxicity | cellular toxicity (cell viability) [1]: limited or no cytotoxicity | cellular toxicity (cell viability) (HepG2 cells): limited or no cytotoxicity

Cl.NCCc1ccc(S(=O)(=O)F)cc1 [PEFAbloc, reference compound]
pericellular proteolytic activity in the presence of inhibitor ([2]; wild-type hepsin-expressing cells, 30 minutes incubation): abolished

O=C1C=CC(=O)N1c1cccc([N+](=O)[O-])c1 [Compound 1, 1-(3-nitrophenyl)-1H-pyrrole-2,5-dione]
IC50 (recombinant human hepsin; [3]): 0.28 ± 0.07 µM | activation of thrombin activity (thrombin; at 1 μM): approximately 3 fold | IC50 (trypsin): 3.88 ± 0.85 µM | cellular toxicity (cell viability) (LNCaP cells): substantial toxicity | cellular toxicity (cell viability) [1]: without affecting | cellular toxicity (cell viability) (HepG2 cells): without affecting

O=C1NC(=O)N(c2cccc(Br)c2)C(=O)/C1=C/c1c[nH]c2ccccc12 [Compound 3]
IC50 (recombinant human hepsin; [3]): 1.93 ± 0.39 µM | IC50 (thrombin): > 20 µM | attenuation of hepsin-dependent pericellular proteolytic activity [2]: approximately 50% | pericellular proteolytic activity (in words) [2]: attenuated pericellular proteolytic activity in a dose dependent manner | IC50 (trypsin): 7.63 ± 1.51 µM | cellular toxicity (cell viability) (LNCaP cells): limited or no cytotoxicity | cellular toxicity (cell viability) [1]: limited or no cytotoxicity | cellular toxicity (cell viability) (HepG2 cells): limited or no cytotoxicity | hepsin expression levels (hepsin): without substantially affecting hepsin expression levels
